Columns and labels:
AKT1 E17K [1] = target: T1, AKT1 E17K (Homo sapiens (Human), UniProt P31749, E17K); assay: Live cell target engagement (NanoBRET) in HEK293 cells; format: cell-based
Target sequence in this assay (P31749 whole entry E17K): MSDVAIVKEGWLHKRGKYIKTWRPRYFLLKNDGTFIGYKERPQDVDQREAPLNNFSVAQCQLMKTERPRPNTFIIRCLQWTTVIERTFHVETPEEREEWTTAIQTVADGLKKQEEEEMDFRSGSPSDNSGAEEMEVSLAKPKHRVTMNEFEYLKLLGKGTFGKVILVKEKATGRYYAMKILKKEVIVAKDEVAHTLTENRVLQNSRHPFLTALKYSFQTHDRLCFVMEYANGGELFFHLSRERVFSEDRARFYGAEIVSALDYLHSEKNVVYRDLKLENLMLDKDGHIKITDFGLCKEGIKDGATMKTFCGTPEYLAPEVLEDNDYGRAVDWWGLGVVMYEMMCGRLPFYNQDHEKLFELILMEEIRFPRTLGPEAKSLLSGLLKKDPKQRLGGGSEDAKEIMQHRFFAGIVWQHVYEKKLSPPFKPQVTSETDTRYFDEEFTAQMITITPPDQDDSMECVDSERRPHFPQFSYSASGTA

AKT1 WT [2] = target: T2, AKT1 WT (Homo sapiens (Human), UniProt P31749); assay: as above; format: cell-based
Target sequence in this assay (P31749 whole entry): as the sequence (P31749 whole entry E17K) above, with K17E counted along it

AKT2 = AKT2 (Homo sapiens (Human), UniProt P31751); assay: as above; format: cell-based
AKT1 E17K [3] = target: T1, AKT1 E17K; assay: Dissociation rate of Compound A and Compound B by competition with ARQ-092, LCMS; format: binding; conditions: for AKT1 E17K t1/2: compound 5 μM, 15 minutes, then ARQ-092 50 μM, 25 mM HEPES pH 8.0, 150 mM NaCl; for Off-rate Selectivity E17K/WT: ratio of t1/2
Description: (§1) Determination of compound dissociation rate by intact protein mass spectrometry:Recombinant AKT1 containing appropriate mutations (1 μM) was treated with inhibitor (5 μM) at room temperature. After 15 minutes, ARQ-092 (50 μM final concentration) was added to prevent aldehyde-containing compound rebinding after initial dissociation. At various timepoints, aliquots were removed and quenched with 5 mM NaBH4 to capture the reversible imine through reductive amination, then analyzed by LCMS. Deconvoluted monoisotopic intensities of unmodified vs. compound-modified mass peaks were compared.
(§2) AKT1(E17K or WT) (1 μM) was incubated with Compound A or Compound B (5 μM) for 15 minutes in 25 mM HEPES pH 8.0, 150 mM NaCl buffer. Then ARQ-092 (50 μM) was added and aliquots quenched with 5 mM NaBH4 at a series of timepoints and the percentage labelling determined by LCMS. FIG. 32A and FIG. 32B provide competition data (dissociation rates) for Compound A and Compound B in both wild-type AKT1 and AKT1 E17K against ARQ-092. Table 8 provides half-life data based on the dissociation studies described herein.
Target sequence in this assay (P31749 2-480 E17K): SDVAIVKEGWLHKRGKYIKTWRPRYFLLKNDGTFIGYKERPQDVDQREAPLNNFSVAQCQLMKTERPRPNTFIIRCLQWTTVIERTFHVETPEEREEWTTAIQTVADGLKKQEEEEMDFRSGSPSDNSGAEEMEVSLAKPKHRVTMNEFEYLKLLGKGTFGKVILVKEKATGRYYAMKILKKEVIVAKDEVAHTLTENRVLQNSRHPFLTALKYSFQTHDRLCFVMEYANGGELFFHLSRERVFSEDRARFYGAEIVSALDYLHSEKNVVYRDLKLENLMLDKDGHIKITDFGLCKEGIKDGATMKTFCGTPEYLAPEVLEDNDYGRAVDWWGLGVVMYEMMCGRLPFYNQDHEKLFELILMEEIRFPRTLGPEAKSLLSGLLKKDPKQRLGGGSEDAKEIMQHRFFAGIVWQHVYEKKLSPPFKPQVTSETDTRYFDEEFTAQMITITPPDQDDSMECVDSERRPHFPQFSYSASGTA

AKT1 WT [4] = target: T2, AKT1 WT; assay: as above; format: binding; conditions: compound 5 μM, 15 minutes, then ARQ-092 50 μM; 25 mM HEPES pH 8.0, 150 mM NaCl
Description: as §1, §2
Target sequence in this assay (P31749 2-480): as the sequence (P31749 2-480 E17K) above, with K16E counted along it

BEAS2B-AKT1(E17K) = BEAS2B-AKT1(E17K) (Homo sapiens (Human), UniProt P31749, E17K); assay: Washout, target engagement durability in intact cells (in-gel fluorescence); format: cell-based
BEAS2B-AKT1(E17K), sequence (P31749 whole entry E17K): as the sequence (P31749 whole entry E17K) above
Description: (§3) FIG. 31 illustrates in-gel fluorescence and western blot wash out experiments of BEAS2B-AKT1(WT) and BEAS2B-AKT1(E17K) following incubation of the cells with Compound B for 0.5 hr. Wash out periods were 0 hr, 0.5 hr, 1 hr, 1.5 hr, 3 hrs, and 21 hrs.
(§4) Measurement of target engagement durability in intact cells: Beas-2b cells stably over-expressing either Flag-AKT1 WT or Flag-AKT1 E17K were treated with compound for 30 minutes at 37 C. The media was then aspirated and replaced with fresh media and the cells were incubated at 37° C. At various timepoints, cells were washed with PBS and then lysed in buffer containing 5 mM NaBH4. After 1 h, the lysate was precipitated in MeOH/CHCl3, resuspended in 1% SDS in PBS and then subjected to copper catalyzed click chemistry with TAMRA-biotin-azide. The samples were precipitated again and then resuspended in 1.5× SDS loading buffer, separated by SDS-PAGE and analyzed by in-gel fluorescence and western blot.

BEAS2B-AKT1(WT) = BEAS2B-AKT1(WT) (Homo sapiens (Human), UniProt P31749); assay: as above; format: cell-based; conditions: incubation 0.5 hr; 21 hours of dilution compared to 1 hour
BEAS2B-AKT1(WT), sequence (P31749 whole entry): as the sequence (P31749 whole entry E17K) above, with K17E counted along it
Description: as §3, §4

AKT1 E17K mutant protein = AKT1 E17K mutant protein (Homo sapiens (Human), UniProt P31749, E17K); assay: Intact mass spectrometry, covalent complex formation and ARQ-092 competition; format: binding
AKT1 E17K mutant protein, sequence (P31749 2-480 E17K): as the sequence (P31749 2-480 E17K) above
Summary of the method: (§5)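 AKT1 WT or E17K (1 μM) was incubated with compound (1.5 μM) for 2 hrs at 37° C., with or without ARQ092 (50 μM) competitor as specificity control. Imines were reduced with 5 mM NaBH4 for 5 min, quenched in acetonitrile+1% TFA, and covalent adducts read by intact-mass LCMS.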

AKT1 WT [5] = target: T2, AKT1 WT; assay: as above; format: binding; conditions: protein 1 μM, compound 1.5 μM, 2 hrs at 37° C., NaBH4 reduction; absence of competitor
Summary of the method: as §5
Target sequence in this assay (P31749 2-480): as the sequence (P31749 2-480 E17K) above, with K16E counted along it

AKT1 E17K [6] = target: T1, AKT1 E17K; assay: Dissociation rate by intact protein LCMS after ARQ092 chase; format: binding
Description: (§6) AKT1 WT or AKT1 E17K (1 μM) were treated with a compound of Table 1 (1.5 μM) for 2 hours at 37° C., then ARQ092 (50 μM final concentration) was added to prevent aldehyde-containing compound rebinding after initial dissociation. At various timepoints, aliquots were removed and quenched with 5 mM NaBH4 for 5 min to capture the reversible imine through reductive amination. Reduction reactions were quenched by diluting the sample in equal volume acetonitrile+1% TFA, then analyzed by LCMS. Deconvoluted monoisotopic intensities of unmodified vs. compound-modified mass peaks were compared.
Target sequence in this assay (P31749 2-480 E17K): as the sequence (P31749 2-480 E17K) above

AKT1 WT [7] = target: T2, AKT1 WT; assay: as above; format: binding; conditions: compound 1.5 μM, 2 hours at 37° C., then ARQ092 50 μM
Description: as §6
Target sequence in this assay (P31749 2-480): as the sequence (P31749 2-480 E17K) above, with K16E counted along it

AKT2, sequence (P31751 whole entry): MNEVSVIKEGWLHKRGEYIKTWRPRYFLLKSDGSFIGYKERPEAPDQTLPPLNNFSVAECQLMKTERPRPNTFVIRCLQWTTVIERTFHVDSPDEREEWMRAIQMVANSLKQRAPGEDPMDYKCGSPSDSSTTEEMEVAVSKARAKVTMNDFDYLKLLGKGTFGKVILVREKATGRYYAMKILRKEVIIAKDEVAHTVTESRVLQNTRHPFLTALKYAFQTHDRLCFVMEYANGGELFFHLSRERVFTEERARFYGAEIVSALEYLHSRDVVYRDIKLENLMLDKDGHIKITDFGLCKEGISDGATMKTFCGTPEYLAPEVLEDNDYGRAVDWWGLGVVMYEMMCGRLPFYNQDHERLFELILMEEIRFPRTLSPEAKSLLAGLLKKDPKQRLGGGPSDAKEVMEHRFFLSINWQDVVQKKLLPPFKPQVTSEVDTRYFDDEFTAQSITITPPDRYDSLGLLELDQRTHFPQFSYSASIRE

Row | IC50 (AKT1 E17K [1]; HEK293, 2 h at 37 C, Table 7) [µM] | IC50 (AKT1 WT [2]; HEK293, 2 h at 37 C, Table 7) [µM] | IC50 (AKT2; HEK293, 2 h at 37 C, Table 7) [µM] | AKT1 E17K t1/2 (AKT1 E17K [3]) [min] | Off-rate Selectivity E17K/WT (AKT1 E17K [3]) | AKT1 (WT) t1/2 (AKT1 WT [4]) [min] | extent of binding to WT-AKT1 after washout (BEAS2B-AKT1(WT)) | AKT1 E17K IC50: Selectivity vs AKT1 WT (AKT1 E17K [1]) | AKT1 E17K IC50: Selectivity vs AKT2 (AKT1 E17K [1]) | IC50 (AKT1 E17K [1]; HEK293, 2 hours at 37° C.) [µM] | IC50 (AKT1 WT [2]; HEK293, 2 hours at 37° C.) [µM] | IC50 (AKT2; HEK293, 2 hours at 37° C.) [µM] | covalent complex formation with AKT1 E17K mutant protein (AKT1 E17K mutant protein; protein 1 μM, compound 1.5 μM, 2 hrs at 37° C., NaBH4 reduction, absence of competitor) | covalent complex formation with AKT1 WT protein (AKT1 WT [5]) | AKT1 E17K t1/2 (AKT1 E17K [6]; compound 1.5 μM, 2 hours at 37° C., then ARQ092 50 μM) [min] | Off-rate Selectivity E17K/WT (AKT1 E17K [6]; ratio of t1/2) | AKT1 (WT) t1/2 (AKT1 WT [7]) [min] | SMILES | extent of binding to E17K AKT1 after washout (BEAS2B-AKT1(E17K); incubation 0.5 hr, 21 hour of washout compared to 1 hour) | selectivity of binding, E17K AKT1 versus WT-AKT1 (BEAS2B-AKT1(E17K); washout experiment) | selectivity of complex formation, AKT1 E17K versus AKT1 WT (AKT1 E17K mutant protein; comparison of the spectra without competitor)
1 | 0.1 to 0.5 | < 0.1 | > 0.5 | 8.2 | 1.6 | 5 |  |  |  |  |  |  |  |  |  |  |  | C#Cc1cccc(-c2ccc3nc(-c4cccnc4N)n(-c4ccc(CNC(=O)c5ccc(C=O)c(O)c5)cc4)c3n2)c1 [Compound A, N-(4-(2-(2-aminopyridin-3-yl)-5-(3-ethynylphenyl)-3H-imidazo[4,5-b]pyridin-3-yl)benzyl)-4-formyl-3-hydroxybenzamide] |  |  | 
2 | < 0.1 | 0.1 to 0.5 | > 0.5 | 1037 | 14.7 | 72.7 | markedly diminished |  |  |  |  |  |  |  |  |  |  | C#Cc1cccc(-c2ccc3nc(-c4cccnc4N)n(-c4ccc(CNCCc5ccc(C=O)c(O)c5)cc4)c3n2)c1 [Compound B, 4-(2-((4-(2-(2-aminopyridin-3-yl)-5-(3-ethynylphenyl)-3H-imidazo[4,5-b]pyridin-3-yl)benzyl)amino)ethyl)-2-hydroxybenzaldehyde] | roughly equivalent to binding after 1 hour of washout | binds with substantial selectively to K17 in E17K AKT1 | 
3 |  |  |  |  |  |  |  | 2.1 | 22 | < 0.1 | < 0.1 | 0.1 to 0.5 | presence of a covalent complex | small level of a covalent complex | 94.2 | 3.8 | 25 | Nc1ncccc1-c1nc2ccc(-c3ccccc3)nc2n1-c1ccc(CNC(=O)c2ccc(O)c(C=O)c2)cc1 [Compound 73, N-(4-(2-(2-aminopyridin-3-yl)-5-phenyl-3H-imidazo[4,5-b]pyridin-3-yl)benzyl)-3-formyl-4-hydroxybenzamide] |  |  | selective for complex formation with AKT1 E17K

From patent US20250115600A1, “COVALENT MODIFIERS OF AKT1 AND USES THEREOF” (Terremoto Biosciences, Inc., priority 2022, published 2025)
